# Target: ASK1 kinase (Homo sapiens (Human), UniProt Q99683)
# Experiment: RBC Kinase Assay (33P-ATP radiometric, myelin basic protein substrate)
# Type: biochemical
# Details: 20 ng ASK1 kinase, MBP substrate, 120 min at room temperature, 1% DMSO
# Method: Example B1. RBC Kinase Assay Protocol
# Base Reaction buffer: 20 mM Hepes (pH 7.5), 10 mM MgCl2, 1 mM EGTA, 0.02% Brij35, 0.02 mg/ml BSA, 0.1 mM Na3VO4, 2 mM DTT, and 1% DMSO were used for the assay.
# Myelin base protein (MPB) was prepared in freshly prepared Base Reaction Buffer. 20 ng of ASK1 kinase was delivered into the substrate solution and gently mixed. Compounds in DMSO were delivered into the kinase reaction mixture (final DMSO concentration 1%). Commercially available 33P-ATP was delivered into the reaction mixture to initiate the reaction. The kinase reaction was incubated for 120 min. at room temperature. Reactions were spotted onto P81 ion exchange paper (Whatman #3698-915). Filters were washed extensively in 0.75% Phosphoric acid. Radioactivity on filters was read, and IC50 values were determined.
# Chain of ASK1 kinase (Q99683 whole entry): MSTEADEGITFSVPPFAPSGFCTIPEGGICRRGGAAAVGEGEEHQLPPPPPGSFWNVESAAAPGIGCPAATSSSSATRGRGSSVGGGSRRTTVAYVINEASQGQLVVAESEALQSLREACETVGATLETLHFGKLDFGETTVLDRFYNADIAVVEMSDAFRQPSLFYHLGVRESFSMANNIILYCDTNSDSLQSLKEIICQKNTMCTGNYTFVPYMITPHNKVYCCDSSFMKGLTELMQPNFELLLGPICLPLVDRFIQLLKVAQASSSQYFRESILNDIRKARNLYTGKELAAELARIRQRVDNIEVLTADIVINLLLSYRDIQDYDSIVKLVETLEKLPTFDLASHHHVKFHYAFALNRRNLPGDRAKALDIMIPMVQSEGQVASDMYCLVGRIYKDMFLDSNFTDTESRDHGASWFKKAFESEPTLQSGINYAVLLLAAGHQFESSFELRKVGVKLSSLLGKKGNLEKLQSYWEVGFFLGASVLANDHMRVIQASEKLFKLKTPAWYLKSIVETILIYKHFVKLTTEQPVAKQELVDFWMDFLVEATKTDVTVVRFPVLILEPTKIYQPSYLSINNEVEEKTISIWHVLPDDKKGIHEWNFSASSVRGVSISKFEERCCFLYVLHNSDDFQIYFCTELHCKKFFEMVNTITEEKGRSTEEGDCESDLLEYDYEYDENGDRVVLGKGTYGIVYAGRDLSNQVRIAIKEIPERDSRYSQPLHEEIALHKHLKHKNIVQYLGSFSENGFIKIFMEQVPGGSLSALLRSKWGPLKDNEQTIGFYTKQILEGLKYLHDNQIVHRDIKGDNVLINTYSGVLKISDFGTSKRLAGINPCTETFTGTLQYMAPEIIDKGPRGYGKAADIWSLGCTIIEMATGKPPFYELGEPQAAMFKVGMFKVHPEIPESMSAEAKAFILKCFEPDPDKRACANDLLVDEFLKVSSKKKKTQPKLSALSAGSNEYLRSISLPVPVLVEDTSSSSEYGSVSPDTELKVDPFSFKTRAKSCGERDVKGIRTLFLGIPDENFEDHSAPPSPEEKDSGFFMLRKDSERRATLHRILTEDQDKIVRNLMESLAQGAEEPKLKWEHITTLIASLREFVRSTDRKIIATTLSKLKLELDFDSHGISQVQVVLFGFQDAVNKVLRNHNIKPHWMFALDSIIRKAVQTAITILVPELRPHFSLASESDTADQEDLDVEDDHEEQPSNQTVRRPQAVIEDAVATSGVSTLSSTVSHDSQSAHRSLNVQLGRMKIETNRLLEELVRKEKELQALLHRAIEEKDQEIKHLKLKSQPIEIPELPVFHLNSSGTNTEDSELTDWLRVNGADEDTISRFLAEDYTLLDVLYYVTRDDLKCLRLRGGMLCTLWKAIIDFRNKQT
row,Structure (SMILES),IC50 [nM]
1,"O=C(Nc1cccc2c1OCCn1nnnc1-2)c1cc(-n2cnc(C3CC3)c2)c(N2C[C@H]3C[C@@H]2CO3)cn1 [Example 62, 5-((1R,4R)-2-oxa-5-azabicyclo[2.2.1]heptan-5-yl)-4-(4-cyclopropyl-1H-imidazol-1-yl)-N-(5,6-dihydrobenzo[f]tetrazolo[1,5-d][1,4]oxazepin-8-yl)picolinamide]",5.1
2,"Cc1cc(F)c(C(=O)Nc2cccc3c2OC[C@H](CO)n2cnnc2-3)cc1-n1cnc(C2CC2)c1 [Example 16, (S)-5-(4-cyclopropyl-1H-imidazol-1-yl)-2-fluoro-N-(5-(hydroxymethyl)-5,6-dihydrobenzo[f][1,2,4]triazolo[4,3-d][1,4]oxazepin-8-yl)-4-methylbenzamide]",5.2
3,"Cc1cc(F)c(C(=O)Nc2cccc3c2OC[C@@H](CF)n2nnnc2-3)cc1-n1cnc(C2CC2)c1 [Example 30, (S)-5-(4-cyclopropyl-1H-imidazol-1-yl)-2-fluoro-N-(5-(fluoromethyl)-5,6-dihydrobenzo[f]tetrazolo[1,5-d][1,4]oxazepin-8-yl)-4-methylbenzamide]",4.5
4,"O=C(Nc1cccc2c1OCCn1nnnc1-2)c1cc(-n2cnc(C3CC3)c2)c(N2C[C@@H]3C[C@H]2CO3)cn1 [Example 64, 5-((1S,4S)-2-oxa-5-azabicyclo[2.2.1]heptan-5-yl)-4-(4-cyclopropyl-1H-imidazol-1-yl)-N-(5,6-dihydrobenzo[f]tetrazolo[1,5-d][1,4]oxazepin-8-yl)picolinamide]",3.9
5,"O=C(Nc1cccc2c1OCCn1nnnc1-2)c1cc(-n2cnc(C3CC3)c2)c(N2CCOCC2)cn1 [Example 21, 4-(4-cyclopropyl-1H-imidazol-1-yl)-N-(5,6-dihydrobenzo[f]tetrazolo[1,5-d][1,4]oxazepin-8-yl)-5-morpholinopicolinamide]",6
6,"Cc1cc(F)c(C(=O)Nc2cccc3c2OCCn2cnnc2-3)cc1-n1cnc(C2CC2)c1 [Example 7, 5-(4-cyclopropyl-1H-imidazol-1-yl)-N-(5,6-dihydrobenzo[f][1,2,4]triazolo[4,3-d][1,4]oxazepin-8-yl)-2-fluoro-4-methylbenzamide]",8.5
7,"O=C(Nc1cccc2c1OC[C@H](CF)n1nnnc1-2)c1cc(-n2cnc(C3CC3)c2)ccn1 [Example 27, (R)-4-(4-cyclopropyl-1H-imidazol-1-yl)-N-(5-(fluoromethyl)-5,6-dihydrobenzo[f]tetrazolo[1,5-d][1,4]oxazepin-8-yl)picolinamide]",6.8
8,"Cc1cc(F)c(C(=O)Nc2cccc3c2OCCn2cncc2-3)cc1-n1cnc(C2CC2)c1 [Example 41, 5-(4-cyclopropyl-1H-imidazol-1-yl)-N-(5,6-dihydrobenzo[f]imidazo[1,5-d][1,4]oxazepin-8-yl)-2-fluoro-4-methylbenzamide]",5.7
9,"C[C@@H]1COc2c(NC(=O)c3cc(-n4cnc(C5CC5)c4)c(N4CCOCC4)cn3)cccc2-c2nnnn21 [Example 19, (R)-4-(4-cyclopropyl-1H-imidazol-1-yl)-N-(5-methyl-5,6-dihydrobenzo[f]tetrazolo[1,5-d][1,4]oxazepin-8-yl)-5-morpholinopicolinamide]",2.2
10,"Cc1cc(F)c(C(=O)Nc2cccc3c2O[C@@H](C)Cn2nnnc2-3)cc1-n1cnc(C2CC2)c1 [Example 42, (S)-5-(4-cyclopropyl-1H-imidazol-1-yl)-2-fluoro-4-methyl-N-(6-methyl-5,6-dihydrobenzo[f]tetrazolo[1,5-d][1,4]oxazepin-8-yl)benzamide]",16.8
11,"Cc1cc(F)c(C(=O)Nc2cccc3c2OC[C@@H](C)n2nnnc2-3)cc1-n1cnc(C2CC2)c1 [Example 5, (R)-5-(4-cyclopropyl-1H-imidazol-1-yl)-2-fluoro-4-methyl-N-(5-methyl-5,6-dihydrobenzo[f]tetrazolo[1,5-d][1,4]oxazepin-8-yl)benzamide]",5.8
12,"C[C@@H]1CN(c2cnc(C(=O)Nc3cccc4c3OC[C@H](C)n3nnnc3-4)cc2-n2cnc(C3CC3)c2)CCO1 [Example 76, 4-(4-cyclopropyl-1H-imidazol-1-yl)-N—((S)-5-methyl-5,6-dihydrobenzo[f]tetrazolo[1,5-d][1,4]oxazepin-8-yl)-5-((R)-2-methylmorpholino)picolinamide]",3.2
13,"C[C@@H]1CN(c2cnc(C(=O)Nc3cccc4c3OC[C@@H](C)n3nnnc3-4)cc2-n2cnc(C3CC3)c2)CCO1 [Example 75, 4-(4-cyclopropyl-1H-imidazol-1-yl)-N—((R)-5-methyl-5,6-dihydrobenzo[f]tetrazolo[1,5-d][1,4]oxazepin-8-yl)-5-((R)-2-methylmorpholino)picolinamide]",4
14,"CN(C)c1cnc(C(=O)Nc2cccc3c2OCCn2nnnc2-3)cc1-n1cnc(C2CC2)c1 [Example 60, 4-(4-cyclopropyl-1H-imidazol-1-yl)-N-(5,6-dihydrobenzo[f]tetrazolo[1,5-d][1,4]oxazepin-8-yl)-5-(dimethylamino)picolinamide]",6.9
15,"C[C@@H]1COc2c(NC(=O)c3cc(-n4cnc(C5CC5)c4)c(N4CC[C@@H](O)C4)cn3)cccc2-c2nnnn21 [Example 77, 4-(4-cyclopropyl-1H-imidazol-1-yl)-5-((R)-3-hydroxypyrrolidin-1-yl)-N—((R)-5-methyl-5,6-dihydrobenzo[f]tetrazolo[1,5-d][1,4]oxazepin-8-yl)picolinamide]",4.7
16,"CC(C)Oc1cnc(C(=O)Nc2cccc3c2OCCn2nnnc2-3)cc1-n1cnc(C2CC2)c1 [Example 68, 4-(4-cyclopropyl-1H-imidazol-1-yl)-N-(5,6-dihydrobenzo[f]tetrazolo[1,5-d][1,4]oxazepin-8-yl)-5-isopropoxypicolinamide]",1.8

# The remaining molecules from weak to strong by IC50, led by results:
row,IC50 [nM],Structure (SMILES)
1,307,"Cc1cc(F)c(C(=O)Nc2cccc3c2OCCn2cnc(C)c2-3)cc1-n1cnc(C2CC2)c1 [Example 51, 5-(4-cyclopropyl-1H-imidazol-1-yl)-2-fluoro-4-methyl-N-(1-methyl-5,6-dihydrobenzo[f]imidazo[1,5-d][1,4]oxazepin-8-yl)benzamide]"
2,39.8,"Cc1cc(F)c(C(=O)Nc2cccc3c2OCCn2cnc(Br)c2-3)cc1-n1cnc(C2CC2)c1 [Example 74, N-(1-bromo-5,6-dihydrobenzo[f]imidazo[1,5-d][1,4]oxazepin-8-yl)-5-(4-cyclopropyl-1H-imidazol-1-yl)-2-fluoro-4-methylbenzamide]"
3,6,"O=C(Nc1cccc2c1OCC1(CC1)n1nnnc1-2)c1cc(-n2cnc(C3CC3)c2)c(N2CCOCC2)cn1 [Example 20, 4-(4-cyclopropyl-1H-imidazol-1-yl)-5-morpholino-N-(6H-spiro[benzo[f]tetrazolo[1,5-d][1,4]oxazepine-5,1′-cyclopropan]-8-yl)picolinamide]"
4,5.8,"Cc1cc(F)c(C(=O)Nc2cccc3c2OC[C@@H](C)n2cnnc2-3)cc1-n1cnc(C2CC2)c1 [Example 1, (R)-5-(4-cyclopropyl-1H-imidazol-1-yl)-2-fluoro-4-methyl-N-(5-methyl-5,6-dihydrobenzo[f][1,2,4]triazolo[4,3-d][1,4]oxazepin-8-yl)benzamide]"
5,5.4,"C[C@@H]1COc2c(NC(=O)c3cc(-n4cnc(C5CC5)c4)ccn3)cccc2-c2nncn21 [Example 11, (R)-4-(4-cyclopropyl-1H-imidazol-1-yl)-N-(5-methyl-5,6-dihydrobenzo[f][1,2,4]triazolo[4,3-d][1,4]oxazepin-8-yl)picolinamide]"
6,5.3,"Cc1cc(F)c(C(=O)Nc2cccc3c2OC2(CC2)Cn2cnnc2-3)cc1-n1cnc(C2CC2)c1 [Example 45, 5-(4-cyclopropyl-1H-imidazol-1-yl)-2-fluoro-4-methyl-N-(5H-spiro[benzo[f][1,2,4]triazolo[4,3-d][1,4]oxazepine-6,1′-cyclopropan]-8-yl)benzamide]"
7,5.2,"Cc1cc(F)c(C(=O)Nc2cccc3c2OCC(C)(C)n2nnnc2-3)cc1-n1cnc(C2CC2)c1 [Example 13, 5-(4-cyclopropyl-1H-imidazol-1-yl)-N-(5,5-dimethyl-5,6-dihydrobenzo[f]tetrazolo[1,5-d][1,4]oxazepin-8-yl)-2-fluoro-4-methylbenzamide]"
8,4.7,"O=C(Nc1cccc2c1OCCn1nnnc1-2)c1cc(-n2cnc(C3CC3)c2)c(N2CC[C@@H](O)C2)cn1 [Example 57, (R)-4-(4-cyclopropyl-1H-imidazol-1-yl)-N-(5,6-dihydrobenzo[f]tetrazolo[1,5-d][1,4]oxazepin-8-yl)-5-(3-hydroxypyrrolidin-1-yl)picolinamide]"
9,4.7,"Cc1cc(F)c(C(=O)Nc2cccc3c2OC[C@@H](C2CC2)n2nnnc2-3)cc1-n1cnc(C2CC2)c1 [Example 12, (R)-5-(4-cyclopropyl-1H-imidazol-1-yl)-N-(5-cyclopropyl-5,6-dihydrobenzo[f]tetrazolo[1,5-d][1,4]oxazepin-8-yl)-2-fluoro-4-methylbenzamide]"
10,3.9,"O=C(Nc1cccc2c1OCCn1nnnc1-2)c1cc(-n2cnc(C3CC3)c2)ccn1 [Example 50, 4-(4-cyclopropyl-1H-imidazol-1-yl)-N-(5,6-dihydrobenzo[f]tetrazolo[1,5-d][1,4]oxazepin-8-yl)picolinamide]"
11,3.5,"O=C(Nc1cccc2c1OCCn1nnnc1-2)c1cc(-n2cnc(C3CC3)c2)c(N2CC[C@H](O)C2)cn1 [Example 61, (S)-4-(4-cyclopropyl-1H-imidazol-1-yl)-N-(5,6-dihydrobenzo[f]tetrazolo[1,5-d][1,4]oxazepin-8-yl)-5-(3-hydroxypyrrolidin-1-yl)picolinamide]"
12,3.2,"O=C(Nc1cccc2c1OCCn1nnnc1-2)c1cc(-n2cnc(C3CC3)c2)c(N2CCC2)cn1 [Example 58, 5-(azetidin-1-yl)-4-(4-cyclopropyl-1H-imidazol-1-yl)-N-(5,6-dihydrobenzo[f]tetrazolo[1,5-d][1,4]oxazepin-8-yl)picolinamide]"
